For 25 molecules, DC50 and Dmax results are on record in patent US20250215012A1, “IKZF2 DEGRADERS AND USES THEREOF” (REGENTS OF THE UNIVERSITY OF MICHIGAN, priority 2022, published 2025).

Each structure is given as a SMILES string.

This assay concerns the target IKZF2 (Homo sapiens (Human), UniProt Q96SW2+Q9UKS7). The assay can be described thus: IKZF2 HiBiT Assay (Jurkat-IKZF2-HiBiT cell line). Conditions: Jurkat-IKZF2-HiBiT cells, 24 hours; for DC50: read-out: HiBit assay degradation analysis DC50; for Dmax: read-out: HiBit assay degradation analysis Dmax. In kind it is cell-based. In a few lines:
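Jurkat cells carrying HiBiT-tagged IKZF2 were exposed to serially diluted compound for 24 h at 37 °C. Remaining IKZF2 was measured by Nano-Glo HiBiT lytic luminescence after 10-20 min at room temperature. Signal was normalized to DMSO, and IC50 came from a four-parameter variable-slope fit.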

Sequence of IKZF2 (Q9UKS7 whole entry): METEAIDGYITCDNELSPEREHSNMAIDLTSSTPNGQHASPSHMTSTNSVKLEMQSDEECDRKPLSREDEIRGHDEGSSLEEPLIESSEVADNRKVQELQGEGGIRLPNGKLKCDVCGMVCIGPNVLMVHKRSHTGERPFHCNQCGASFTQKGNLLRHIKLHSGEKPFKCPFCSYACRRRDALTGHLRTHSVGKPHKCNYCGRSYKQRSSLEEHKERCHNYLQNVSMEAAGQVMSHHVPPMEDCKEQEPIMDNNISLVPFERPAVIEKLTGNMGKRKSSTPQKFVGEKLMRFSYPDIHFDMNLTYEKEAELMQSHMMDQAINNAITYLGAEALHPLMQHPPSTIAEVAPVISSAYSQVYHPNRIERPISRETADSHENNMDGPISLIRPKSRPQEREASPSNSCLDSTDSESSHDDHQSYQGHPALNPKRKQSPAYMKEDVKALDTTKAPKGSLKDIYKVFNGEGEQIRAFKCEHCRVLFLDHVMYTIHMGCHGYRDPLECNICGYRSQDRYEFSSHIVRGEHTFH
Sequence of IKZF2 (Q96SW2 whole entry): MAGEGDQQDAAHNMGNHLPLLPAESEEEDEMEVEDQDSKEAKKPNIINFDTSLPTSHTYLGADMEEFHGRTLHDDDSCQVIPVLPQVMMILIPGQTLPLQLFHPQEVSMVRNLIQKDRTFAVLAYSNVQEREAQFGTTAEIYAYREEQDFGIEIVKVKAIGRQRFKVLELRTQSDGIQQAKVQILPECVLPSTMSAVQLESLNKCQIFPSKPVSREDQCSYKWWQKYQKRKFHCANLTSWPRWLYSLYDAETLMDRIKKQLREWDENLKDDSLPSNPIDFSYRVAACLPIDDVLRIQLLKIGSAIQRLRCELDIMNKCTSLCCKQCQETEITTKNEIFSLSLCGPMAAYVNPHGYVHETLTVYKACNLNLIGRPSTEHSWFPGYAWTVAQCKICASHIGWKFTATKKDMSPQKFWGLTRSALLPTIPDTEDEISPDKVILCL
Sequence of IKZF2 (Q16531 whole entry partner): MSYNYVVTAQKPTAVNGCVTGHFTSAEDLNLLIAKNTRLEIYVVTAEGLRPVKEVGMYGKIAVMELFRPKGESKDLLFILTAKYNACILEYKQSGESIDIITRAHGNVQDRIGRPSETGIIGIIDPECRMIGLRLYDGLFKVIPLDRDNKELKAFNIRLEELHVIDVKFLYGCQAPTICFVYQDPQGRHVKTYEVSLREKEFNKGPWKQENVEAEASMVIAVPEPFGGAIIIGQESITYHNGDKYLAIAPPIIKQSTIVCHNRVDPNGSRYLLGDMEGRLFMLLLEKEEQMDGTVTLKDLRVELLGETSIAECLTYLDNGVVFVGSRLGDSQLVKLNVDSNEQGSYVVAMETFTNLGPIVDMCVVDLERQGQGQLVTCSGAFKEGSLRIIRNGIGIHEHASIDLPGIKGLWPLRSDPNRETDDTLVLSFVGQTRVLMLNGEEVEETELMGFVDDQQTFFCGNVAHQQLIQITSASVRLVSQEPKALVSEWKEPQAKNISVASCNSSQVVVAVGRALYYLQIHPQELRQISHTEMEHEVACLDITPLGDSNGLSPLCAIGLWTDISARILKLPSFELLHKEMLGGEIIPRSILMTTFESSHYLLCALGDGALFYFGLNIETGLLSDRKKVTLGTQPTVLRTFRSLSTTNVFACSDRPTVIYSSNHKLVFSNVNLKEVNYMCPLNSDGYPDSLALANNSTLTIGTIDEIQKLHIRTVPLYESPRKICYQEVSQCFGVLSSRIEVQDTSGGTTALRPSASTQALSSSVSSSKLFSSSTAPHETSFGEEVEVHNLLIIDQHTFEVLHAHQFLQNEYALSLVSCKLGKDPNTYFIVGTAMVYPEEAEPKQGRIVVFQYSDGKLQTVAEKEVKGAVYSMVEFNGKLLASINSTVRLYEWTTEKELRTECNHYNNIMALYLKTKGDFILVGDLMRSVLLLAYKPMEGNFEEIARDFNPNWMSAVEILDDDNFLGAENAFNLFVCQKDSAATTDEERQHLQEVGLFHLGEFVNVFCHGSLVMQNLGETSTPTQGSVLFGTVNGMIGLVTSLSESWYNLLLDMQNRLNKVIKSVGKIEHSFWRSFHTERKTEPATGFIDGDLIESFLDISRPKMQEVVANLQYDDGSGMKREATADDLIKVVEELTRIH

Turning to `O=C1CCC(N2Cc3c(ccc4c3OCC43CCN(Cc4cnn(Cc5ccccc5)c4)CC3)C2=O)C(=O)N1` (centres unmarked) [Compound A209, 3-(1′-((1-benzyl-1H-pyrazol-4-yl)methyl)-6-oxo-6,8-dihydro-2H,7H-spiro[furo[2,3-e]isoindole-3,4′-piperidin]-7-yl)piperidine-2,6-dione], the DC50 was less than 50 nM and the Dmax was in the range of 60 to 80%.

As to `CN(C)S(=O)(=O)c1ccc(CN2CCC3(CC2)COc2c3ccc3c2CN(C2CCC(=O)NC2=O)C3=O)cc1` (centres unmarked) [Compound A210, 4-((7-(2,6-dioxopiperidin-3-yl)-6-oxo-7,8-dihydro-2H,6H-spiro[furo[2,3-e]isoindole-3,4′-piperidin]-1′-yl)methyl)-N,N-dimethylbenzenesulfonamide], the DC50 was greater than 500 nM and the Dmax is less than 40%.

Consider `COc1ccc(CN2CCC3(CC2)COc2c3ccc3c2CN(C2CCC(=O)NC2=O)C3=O)cc1` (centres unmarked) [Compound A211, 3-(1′-(4-methoxybenzyl)-6-oxo-6,8-dihydro-2H,7H-spiro[furo[2,3-e]isoindole-3,4′-piperidin]-7-yl)piperidine-2,6-dione], for which the DC50 was greater than 500 nM and the maximal degradation (Dmax) is less than 40%.

Turning to `COc1cccc(CN2CCC3(CC2)COc2c3ccc3c2CN(C2CCC(=O)NC2=O)C3=O)c1` (centres unmarked) [Compound A212, 3-(1′-(3-methoxybenzyl)-6-oxo-6,8-dihydro-2H,7H-spiro[furo[2,3-e]isoindole-3,4′-piperidin]-7-yl)piperidine-2,6-dione], the DC50 was greater than 500 nM and the Dmax fell in the range of 40 to 60%.

Take `Cc1cccc(CN2CCC3(CC2)COc2c3ccc3c2CN(C2CCC(=O)NC2=O)C3=O)c1` (centres unmarked) [Compound A213, 3-(1′-(3-methylbenzyl)-6-oxo-6,8-dihydro-2H,7H-spiro[furo[2,3-e]isoindole-3,4′-piperidin]-7-yl)piperidine-2,6-dione]: the DC50 was less than 50 nM and the Dmax fell in the range of 60 to 80%.

Turning to `O=C1CCC(N2Cc3c(ccc4c3OCC43CCN(Cc4ccccc4Cl)CC3)C2=O)C(=O)N1` (centres unmarked) [Compound A214, 3-(1′-(2-chlorobenzyl)-6-oxo-6,8-dihydro-2H,7H-spiro[furo[2,3-e]isoindole-3,4′-piperidin]-7-yl)piperidine-2,6-dione], the DC50 lay in the range of 200 to 500 nM and the Dmax lay in the range of 40 to 60%.

Consider `COc1ccccc1CN1CCC2(CC1)COc1c2ccc2c1CN(C1CCC(=O)NC1=O)C2=O` (centres unmarked) [Compound A215, 3-(1′-(2-methoxybenzyl)-6-oxo-6,8-dihydro-2H,7H-spiro[furo[2,3-e]isoindole-3,4′-piperidin]-7-yl)piperidine-2,6-dione], for which the DC50 lay in the range of 200 to 500 nM and the Dmax was 40 to 60%.

Take `O=C1CCC(N2Cc3c(ccc4c3OCC43CCN(Cc4cccc(Cl)c4)CC3)C2=O)C(=O)N1` (centres unmarked) [Compound A216, 3-(1′-(3-chlorobenzyl)-6-oxo-6,8-dihydro-2H,7H-spiro[furo[2,3-e]isoindole-3,4′-piperidin]-7-yl)piperidine-2,6-dione]: the DC50 was 50 to 200 nM and the Dmax lay in the range of 60 to 80%.

`Cn1ncc2cc(CN3CCC4(CC3)COc3c4ccc4c3CN(C3CCC(=O)NC3=O)C4=O)ccc21` (centres unmarked) [Compound A217, 3-(1′-((1-methyl-1H-indazol-5-yl)methyl)-6-oxo-6,8-dihydro-2H,7H-spiro[furo[2,3-e]isoindole-3,4′-piperidin]-7-yl)piperidine-2,6-dione]: the half-maximal degradation concentration (DC50) was greater than 500 nM and the Dmax is less than 40%.

As to `O=C1CCC(N2Cc3c(ccc4c3OCC43CCN(Cc4cccc5c4CCCO5)CC3)C2=O)C(=O)N1` (centres unmarked) [Compound A218, 3-(1′-(chroman-5-ylmethyl)-6-oxo-6,8-dihydro-2H,7H-spiro[furo[2,3-e]isoindole-3,4′-piperidin]-7-yl)piperidine-2,6-dione], the DC50 was less than 50 nM and the Dmax was 60 to 80%.

On to `N#Cc1cccc(CN2CCC3(CC2)COc2c3ccc3c2CN(C2CCC(=O)NC2=O)C3=O)c1` (centres unmarked) [Compound A219, 3-((7-(2,6-dioxopiperidin-3-yl)-6-oxo-7,8-dihydro-2H,6H-spiro[furo[2,3-e]isoindole-3,4′-piperidin]-1′-yl)methyl)benzonitrile], for which the DC50 is 200 to 500 nM and the Dmax was 40 to 60%.

Regarding `O=C1CCC(N2Cc3c(ccc4c3OCC43CCN(Cc4cnn(C5CCCCC5)c4)CC3)C2=O)C(=O)N1` (centres unmarked) [Compound A220, 3-(1′-((1-cyclohexyl-1H-pyrazol-4-yl)methyl)-6-oxo-6,8-dihydro-2H,7H-spiro[furo[2,3-e]isoindole-3,4′-piperidin]-7-yl)piperidine-2,6-dione], the DC50 is greater than 500 nM and the Dmax was less than 40%.

As to `O=C1CCC(N2Cc3c(ccc4c3OCC43CCN(Cc4cnn(-c5ccccc5)c4)CC3)C2=O)C(=O)N1` (centres unmarked) [Compound A221, 3-(6-oxo-1′-((1-phenyl-1H-pyrazol-4-yl)methyl)-6,8-dihydro-2H,7H-spiro[furo[2,3-e]isoindole-3,4′-piperidin]-7-yl)piperidine-2,6-dione], the DC50 was greater than 500 nM and the Dmax was 40 to 60%.

Take `O=C1CCC(N2Cc3c(ccc4c3OCC43CCN(Cc4ccc(-n5cccn5)cc4)CC3)C2=O)C(=O)N1` (centres unmarked) [Compound A222, 3-(1′-(4-(1H-pyrazol-1-yl)benzyl)-6-oxo-6,8-dihydro-2H,7H-spiro[furo[2,3-e]isoindole-3,4′-piperidin]-7-yl)piperidine-2,6-dione]: the DC50 was greater than 500 nM and the Dmax lay in the range of 40 to 60%.

Turning to `O=C1CCC(N2Cc3c(ccc4c3OCC43CCN(Cc4c(F)ccc5occc45)CC3)C2=O)C(=O)N1` (centres unmarked) [Compound A223, 3-(1′-((5-fluorobenzofuran-4-yl)methyl)-6-oxo-6,8-dihydro-2H,7H-spiro[furo[2,3-e]isoindole-3,4′-piperidin]-7-yl)piperidine-2,6-dione], the DC50 fell in the range of 200 to 500 nM and the Dmax is 40 to 60%.

On to `O=C1CCC(N2Cc3c(ccc4c3OCC43CCN(Cc4cccc5c4OCC5)CC3)C2=O)C(=O)N1` (centres unmarked) [Compound A224, 3-(1′-((2,3-dihydrobenzofuran-7-yl)methyl)-6-oxo-6,8-dihydro-2H,7H-spiro[furo[2,3-e]isoindole-3,4′-piperidin]-7-yl)piperidine-2,6-dione], for which the DC50 is 200 to 500 nM and the Dmax fell in the range of 40 to 60%.

With `O=C1CCC(N2Cc3c(ccc4c3OCC43CCN(Cc4cccc5c4OCO5)CC3)C2=O)C(=O)N1` (centres unmarked) [Compound A225, 3-(1′-(benzo[d][1,3]dioxol-4-ylmethyl)-6-oxo-6,8-dihydro-2H,7H-spiro[furo[2,3-e]isoindole-3,4′-piperidin]-7-yl)piperidine-2,6-dione], the DC50 is greater than 500 nM and the greatest degradation seen (Dmax) lay within 40 to 60%.

As to `Cn1nc(CN2CCC3(CC2)COc2c3ccc3c2CN(C2CCC(=O)NC2=O)C3=O)c2ccccc21` (centres unmarked) [Compound A226, 3-(1′-((1-methyl-1H-indazol-3-yl)methyl)-6-oxo-6,8-dihydro-2H,7H-spiro[furo[2,3-e]isoindole-3,4′-piperidin]-7-yl)piperidine-2,6-dione], the DC50 was greater than 500 nM and the Dmax was 40 to 60%.

In the case of `O=C1CCC(N2Cc3c(ccc4c3OCC43CCN(Cc4n[nH]c5ccccc45)CC3)C2=O)C(=O)N1` (centres unmarked) [Compound A227, 3-(1′-((1H-indazol-3-yl)methyl)-6-oxo-6,8-dihydro-2H,7H-spiro[furo[2,3-e]isoindole-3,4′-piperidin]-7-yl)piperidine-2,6-dione], the DC50 was greater than 500 nM and the Dmax was 40 to 60%.

In the case of `Cn1cc(CN2CCC3(CC2)COc2c3ccc3c2CN(C2CCC(=O)NC2=O)C3=O)cn1` (centres unmarked) [Compound A228, 3-(1′-((1-methyl-1H-pyrazol-4-yl)methyl)-6-oxo-6,8-dihydro-2H,7H-spiro[furo[2,3-e]isoindole-3,4′-piperidin]-7-yl)piperidine-2,6-dione], the DC50 was greater than 500 nM and the Dmax is less than 40%.

Consider `CCn1cc(CN2CCC3(CC2)COc2c3ccc3c2CN(C2CCC(=O)NC2=O)C3=O)cn1` (centres unmarked) [Compound A229, 3-(1′-((1-ethyl-1H-pyrazol-4-yl)methyl)-6-oxo-6,8-dihydro-2H,7H-spiro[furo[2,3-e]isoindole-3,4′-piperidin]-7-yl)piperidine-2,6-dione], for which the DC50 was greater than 500 nM and the Dmax is 40 to 60%.

`O=C1CCC(N2Cc3c(ccc4c3OCC43CCN(Cc4cnn(C5CC5)c4)CC3)C2=O)C(=O)N1` (centres unmarked) [Compound A230, 3-(1′-((1-cyclopropyl-1H-pyrazol-4-yl)methyl)-6-oxo-6,8-dihydro-2H,7H-spiro[furo[2,3-e]isoindole-3,4′-piperidin]-7-yl)piperidine-2,6-dione]: the DC50 was greater than 500 nM and the Dmax lay in the range of 40 to 60%.

For the molecule `O=C1CCC(N2Cc3c(ccc4c3OCC43CCN(Cc4cnn(CC5CC5)c4)CC3)C2=O)C(=O)N1` (centres unmarked) [Compound A231, 3-(1′-((1-(cyclopropylmethyl)-1H-pyrazol-4-yl)methyl)-6-oxo-6,8-dihydro-2H,7H-spiro[furo[2,3-e]isoindole-3,4′-piperidin]-7-yl)piperidine-2,6-dione], the DC50 fell in the range of 200 to 500 nM and the Dmax lay within 60 to 80%.

Turning to `O=C1CCC(N2Cc3c(ccc4c3OCC43CCN(Cc4cnn(CC(F)(F)F)c4)CC3)C2=O)C(=O)N1` (centres unmarked) [Compound A232, 3-(6-oxo-1′-((1-(2,2,2-trifluoroethyl)-1H-pyrazol-4-yl)methyl)-6,8-dihydro-2H,7H-spiro[furo[2,3-e]isoindole-3,4′-piperidin]-7-yl)piperidine-2,6-dione], the DC50 is greater than 500 nM and the Dmax fell in the range of 40 to 60%.

`O=C1CCC(N2Cc3c(ccc4c3OCC43CCN(Cc4cnn(CC5CCOCC5)c4)CC3)C2=O)C(=O)N1` (centres unmarked) [Compound A233, 3-(6-oxo-1′-((1-((tetrahydro-2H-pyran-4-yl)methyl)-1H-pyrazol-4-yl)methyl)-6,8-dihydro-2H,7H-spiro[furo[2,3-e]isoindole-3,4′-piperidin]-7-yl)piperidine-2,6-dione]: the DC50 is 200 to 500 nM and the Dmax lay in the range of 60 to 80%.
